The values that follow come from patent US20070224253A1, “Transdermal Delivery of Meptazinol” (Shire Pharmaceuticals Inc., priority 2005, published 2007).

Data set [1] is described as follows: Yellow discoloration of the meptazinol gel on standing, effect of antioxidants. The data set is classed as physicochemical. To be noted: antioxidant included in meptazinol gel; BHT 0.02-0.05%, ascorbic acid 0.05%.
Data set [2] in a line: Transdermal permeation through human skin in Franz cell in vitro apparatus. To be noted: for Skin flux / permeation compared with other forms (in words): Franz cell; for Flux: individual Franz cell/donor; for Flux / Mean flux ± sd: vehicle 2% oleic acid: 2% dimethyl isosorbide: 96% propylene glycol; for Mean flux ± sd: mean over donors.
The nature of the next data set: Aqueous solubility. It counts as physicochemical. To be noted: aqueous solution.
Data set [3] can be described thus: Saturated solubility in potential delivery vehicle (oleic acid/dimethyl isosorbide/propylene glycol). To be noted: in 2% oleic acid: 2% dimethyl isosorbide: 96% propylene glycol; for solubility: 2% oleic acid: 2% dimethyl isosorbide: 96% propylene glycol, 32 °C, organic solvent or mixture, thermodynamic from solid, Solubility at 32° C.
The conditions of data set [4]: cited from earlier work.
Where [5] appears, read: estimated from visual assessment only.
The mark [6] stands for this setting: listed as M HCl (1), hydrochloride.
Setting [7] is: listed as M HCl (2), hydrochloride.

Values after ≈ are worked out from the molar mass of the structure shown. Values joined by “and” are separate entries in the source; they are usually repeats but may differ in a detail not shown here. Identical values can stand only once. “Also recorded” adds a separate entry of the source. Counter-ions that a name gives are not always drawn. Marks after values point to notes of the source that are not given here.

For `Cc1cc(C(C)(C)C)c(O)c(C(C)(C)C)c1` [butylated hydroxy toluene], in data set [1], the “Effect on yellow discoloration of the gel” value (“Effect” for short) is reported as “completely eliminated”.

`COc1ccc(O)c(C(C)(C)C)c1` [butylated hydroxy anisole]: the “Effect” value in data set [1] is on record as “did not”.

Turning to `Cc1c(C)c2c(c(C)c1O)CC[C@@](C)(CCC[C@H](C)CCC[C@H](C)CCCC(C)C)O2` [alpha tocopherol], the “Effect” value in data set [1] was “did not”.

For `CCC1(c2cccc(O)c2)CCCCN(C)C1` (stereo not drawn) [Meptazinol free base, Meptazinol], the “Skin flux / permeation compared with other forms (in words)” value in data set [2] was “unexpectedly poor flux in comparison to the various salt forms”. Further, the solubility in “Aqueous solubility” amounted to 0.17 mg/mL (≈ 0.729 mM). The solubility in data set [3] (setting [5]) is ~20 mg/mL (≈ 85.7 mM). In addition, in data set [4] (in vivo), the Plasma half-life was 1.5 to 2.0 h. Besides, in data set [4] (oral), the “Fraction of an oral dose removed by first pass metabolism through the liver” value is “up to 98.1%” and the “Oral bioavailability, reported mean values” was 4-9%.

As to `O=C1O[C@H]([C@@H](O)CO)C(O)=C1O` [Ascorbic acid], in data set [1], the “Effect” value is given as “some reduction”.

As to `Oc1cccc(O)c1O` [pyrogallol], in data set [1], the “Effect” value is recorded as “did not”.

As for Meptazinol tosylate, in data set [2], the “Skin flux / permeation compared with other forms (in words)” value is on record as “less effective in improving flux” and the “Mean flux ± sd” value worked out at 135.9 ± 82.5 ug/cm^2/h. For the same compound, the Flux in data set [2] (listed as M tosylate) was 158.8 ug/cm^2/h and 165.0 ug/cm^2/h and 90.9 ug/cm^2/h and 39.6 ug/cm^2/h and 273.7 ug/cm^2/h and 87.4 ug/cm^2/h. The “Solubility at 32° C.” value in data set [3] (setting [5]) is “˜140** mg/ml”.

On to `CCC1(c2cccc(O)c2)CCCCN(C)C1` (stereo not drawn) [Meptazinol hydrochloride, reference compound], for which the “Skin flux / permeation compared with other forms (in words)” value in data set [2] (listed as hydrochloride, hydrochloride) is “more rapidly absorbed”; in data set [2] (listed as meptazinol hydrochloride, hydrochloride), “much better permeant than the maleate; also recorded: higher flux rate than the camsylate; also recorded: substantially greater flux than the free base; also recorded: several times better than the meptazinol free base”. Further, the Flux is 135.7 ug/cm^2/h and 218.0 ug/cm^2/h and 132.6 ug/cm^2/h and 197.1 ug/cm^2/h and 194.0 ug/cm^2/h and 162.5 ug/cm^2/h in data set [2] (setting [6]); 66.5 ug/cm^2/h and 222.6 ug/cm^2/h and 213.4 ug/cm^2/h (2×) in data set [2] (setting [7]). The “Mean flux ± sd” value in data set [2] (setting [6]) is recorded as 173.3 ± 35.2 ug/cm^2/h; in data set [2] (setting [7]) it was 179.0 ± 75.1 ug/cm^2/h. For the same compound, in data set [3] (measured by HPLC), the solubility was found to be 78 mg/mL.

Take Meptazinol maleate: the Flux in data set [2] (listed as M maleate) was 41.3 ug/cm^2/h and 91.3 ug/cm^2/h and 85.3 ug/cm^2/h and 93.9 ug/cm^2/h. Also, the “Mean flux ± sd” value in data set [2] is reported as 78.0 ± 24.7 ug/cm^2/h. For the same compound, the “Solubility at 32° C.” value in data set [3] (measured by HPLC) is 105* mg/ml.

For `CC1(C)C2CCC1(CS(=O)(=O)O)C(=O)C2.CCC1(c2cccc(O)c2)CCCCN(C)C1` (stereo not drawn) [Meptazinol camsylate], in data set [2], the “Skin flux / permeation compared with other forms (in words)” value was “less effective in improving flux” and the “Mean flux ± sd” value came out at 79.2 ± 71.2 ug/cm^2/h. The Flux in data set [2] (listed as M camsylate) was 78.1 ug/cm^2/h and 110.9 ug/cm^2/h and 27.3 ug/cm^2/h and 45.1 ug/cm^2/h and 204.2 ug/cm^2/h and 9.5 ug/cm^2/h. For the same compound, the “Solubility at 32° C.” value in data set [3] (setting [5]) is “˜250** mg/ml”.

In the case of Meptazinol trifluoroacetate, in data set [2], the “Skin flux / permeation compared with other forms (in words)” value is “more rapidly absorbed” and the “Mean flux ± sd” value was found to be 224.4 ± 167.6 ug/cm^2/h. In data set [2] (listed as M TFA), the Flux is 29.1 ug/cm^2/h and 422.2 ug/cm^2/h and 163.8 ug/cm^2/h and 282.3 ug/cm^2/h. For the same compound, in data set [3] (measured by HPLC), the “Solubility at 32° C.” value was 170* mg/ml.
